{
  "source": "paper PMC5992566",
  "about": "(Nanomedicine, 2018)",
  "origin": "cited, not measured here",
  "conditions": "after a single parenteral dose",
  "data": [
    {"smiles": "C[C@H]1CO[C@@H]2Cn3cc(C(=O)NCc4ccc(F)cc4F)c(=O)c(O)c3C(=O)N12", "note": "[Cabotegravir, cabotegravir]", "values": [
      {"measurement": "Half-life", "value": "21 to 50", "unit": "days"}
    ]}
  ]
}
